# According to patent US20040180812A1, “Methods of treating and preventing proliferative disease” (Technology Center, priority 2002, published 2004):
# Where two headings read alike, the source gives them in different places.
# Experiments:
# [1] = system: A-549 non-small cell lung cancer cells; assay: In-vitro determination of proliferation (Coulter counter); type: cell-based
# Procedure: (§1) U-87 glioblastoma cells and A-549 non-small cell lung cancer cells (American Type Culture Collection) were maintained in alpha MEM (Sigma) with 10% fetal bovine serum (Atlanta Biologicals). Tumor cell lines were expanded as a monolayer culture by serial passage on tissue culture plates in tumor media (alpha MEM with 10% fetal bovine serum).
# (§2) The cell doubling time was determined for both U-87 and A-549 tumor cells. A total of 1×10^6 Cells from resting culture were seeded in 50 mm flasks with medium and allowed to adhere for approximately Three hours. Clopidogrel and Aggrenox™ were then added in concentrations of 25, 50, or 100 μM. After further incubation for four hours, controls and treated dishes were trypsinized and counted in a Coulter Counter ZM. This count served as the starting count for proliferation and confirmed similar cell adhesion in each series. Cells were then counted every 24 hours for a total of 96 hours.
# [2] = system: A-549 non-small cell lung cancer cells; assay: Clonogenic assay; type: cell-based; settings: 25, 50, 100 μM, four hours exposure
# Procedure: as §1
# (§3) The effect of clopidogrel and Aggrenox™ on U-87 and A-549 survival was determined by preparing single cell suspensions from each cell culture. The cells were subjected to three concentrations of each drug (25, 50, or 100 μM) for four hours in medium. The suspensions were serially diluted with medium. The cells were then seeded in triplicate in 50 mm flasks. After 6 to 14 days of incubation, the cultures were stained with crystal violet and counted.
# [3] = system: U-87 tumor
# Procedure: In order to evaluate the effect of clopidogrel on U-87 tumor growth rate, U-87 cell suspension was injected subcutaneously into the right hind limb (5×10^5 cells in 50 μl PBS) of athymic NCR NUM mice (Taconic Farms). The clopidogrel was added to the drinking water in concentrations of 0.135 (low), 0.180 (intermediate) or 0.225 mg/ml (high). This was equivalent to an oral dose of approximately 15, 20, or 25 mg/kg/day. Mice were not pretreated prior to tumor implantation. The mice were randomized to five groups (control, low, intermediate and high concentration and non-solubilized drug) with five mice per group.
# U-87 tumors were allowed to grow for approximately 10-14 days until reaching an approximate volume of 40-85 mm^3, before treatment. Tumor volume was determined daily by direct measurement with calipers and calculated by the formula [(smallest diameter^2×widest diameter)/2]. Daily weights were obtained.
# Polynomial regression lines were fit to the data for each individual mouse for 20-24 days. Means were taken at two-day intervals for mice in each group.
# U-87 cells were inoculated into the right hind limb of athymic NCR NUM mice. […] U-87 tumors were allowed to grow for approximately 10-14 days until reaching an approximate volume of 40-85 mm^3, before treatment. Clopidogrel was added to the drinking water in concentrations of 0.135 (low), 0.180 (intermediate) or 0.225 mg/ml (high). This was equivalent to an oral dose of approximately 15, 20, or 25 mg/kg/day. Tumor dimensions and animal weights were taken daily.
# [4] = system: U-87 glioblastoma cells; assay: Clonogenic assay; type: cell-based, human; settings: 25, 50, 100 μM, four hours exposure
# Procedure: as §1, §3
# [5] = system: human U87 gliobastoma tumor xenografts
# Procedure: Glioblastoma cell line U-87 (ATCC) was cultured in 150 cm^2 polystyrene flasks (Fisher cat. no. 355001) in Alpha MEM media (Cellgro® cat. no. 15-012-CV) supplemented with 10% FBS, 1× non essential amino acids (Cellgro® cat. no. 25-025-Cl), 0.1% glucose (Sigma® cat. no. G8644), 2 mM L-glutamine (Gibco BRL® cat. no. 25030-081) and 0.2% sodium bicarbonate (Cellgro® cat. no. 25-035-Cl) to sub-confluence (80%). Prior to cell dissociation, the culture was washed once with 1×PBS (Bio Whittaker® cat. no. 16-006Y) and dissociated with trypsin free Cellstripper™ (Cellgro® cat. no. 25-056-Cl). Suspended cells were counted using the model Z1 Coulter® particle counter.
# Male mice (NCR-NU-M, Taconic®), 3-5 weeks old, were anesthetized with 0.2 mls Nembutal® (10 mg/ml in sterile water) subcutaneous in the back of the neck. Once anesthetized, each mouse was injected subcutaneous with 5×10^5 cells/0.2 ml in the right hind flank. Tumors were allowed to grow to 60 mm^3 prior to treatment. Tumor volume was calculated by the following formula from orthogonal measurements using Fisher Scientific® electronic digital calipers. [formula]
# Tumors were allowed to grow to a final volume of 2000 mm^3 where upon the treatment was terminated and the mice were sacrificed using a CO2 gas chamber.
# Treatment groups were evaluated for tumor growth delay. A 60 mg/kg/day solution of Plavix® (clopidogrel bisulfate) was prepared by crushing and dissolving 75 mg tablets in water (pH 1.0). The solute was filtered through a Nalgene® filtration unit (cat. no. 126-0020) and the pH raised to 1.78. Mice were gavaged daily with 0.2 ml solution of Plavix® and vehicle controls were gavaged daily with 0.2 ml acidified water pH 1.78.
# Prior to X-ray irradiation, mice were anesthetized with […] Ketamine HCl (Ketaset III®, Fort Dodge®) and […] Acepromazine Maleate (Phoenix pharmaceutical, Inc.) by subcutaneous injection in the back to the neck. Tumors on the right hind leg were exposed to 7.5 Gy three times on alternate days for one week using a Pantek X-ray irradiator.
# [6] = system: U-87 glioblastoma cells; assay: In-vitro determination of proliferation (Coulter counter); type: cell-based, human
# Procedure: as §1, §2
# [7] = highest concentration 100 μM, counted every 24 h for 96 h
smiles,measurement,setting,value
"COC(=O)[C@H](c1ccccc1Cl)N1CCc2sccc2C1 [clopidogrel, clopidogrel bisulfate]",A-549 cell proliferation,[1]; [7],even more drastically inhibited
same,cell proliferation (A-549),[1]; lowest concentration (25 μM),did not significantly affect cell proliferation
same,A-549 clonogenic cell survival compared with Aggrenox results,[2],exaggerated
same,dose response of tumor growth delay,"[3]; 0.135, 0.180, 0.225 mg/ml in drinking water",A dose response was noted
same,tumor growth delay,"[3]; highest concentration 0.225 mg/ml in drinking water, approx. 25 mg/kg/day oral",much more dramatic
same,tumor growth delay,"[3]; lowest concentration 0.135 mg/ml in drinking water, approx. 15 mg/kg/day oral",small growth delay
same,U-87 clonogenic cell survival compared with Aggrenox results,[4],exaggerated
same,Tumor growth Delay (Experiment 1),[5]; Plavix alone,5 days
same,Tumor growth Delay (Experiment 2),[5]; Plavix alone,5 days
same,tumor growth delay (TGD),"[5]; Plavix alone, 60 mg/kg/day gavage",5 days
same,Tumor growth Delay (Experiment 2),[5]; Radiation plus Plavix,16 days
same,tumor growth delay (TGD),[5]; radiation (7.5 Gy three times) and Plavix 60 mg/kg/day combined,16 days
same,TGD more than radiation alone,[5]; radiation and Plavix combined versus radiation alone,4 days
same,proliferation of U-87 cells,[6]; [7],considerably inhibited
same,cell proliferation (U-87),[6]; lowest concentration (25 μM),did not significantly affect cell proliferation
